Columns and labels:
Assay in all cases: cells
Parameters in all cases: species or system NCI human tumour cell line panel
MDA-MB-468 = settings: Homo sapiens, MDA-MB-468; growth inhibition (GI%), single dose
SNB-19 = settings: Homo sapiens, SNB-19; growth inhibition (GI%), single dose
KM12 = settings: Homo sapiens, KM12; growth inhibition (GI%), single dose
SR = settings: Homo sapiens, SR; growth inhibition (GI%), single dose
HOP-92 = settings: Homo sapiens, HOP-92; growth inhibition (GI%), single dose
HS 578T = settings: Homo sapiens, Hs-578T; growth inhibition (GI%), single dose
UO-31 = settings: Homo sapiens, UO-31; growth inhibition (GI%), single dose
U251 = settings: Homo sapiens, U-251; growth inhibition (GI%), single dose
TK-10 = settings: Homo sapiens, TK-10; growth inhibition (GI%), single dose
RPMI-8226 = settings: Homo sapiens, RPMI-8226; growth inhibition (GI%), single dose
NCI-H522 = settings: Homo sapiens, NCI-H522; growth inhibition (GI%), single dose
NCI-H226 = settings: Homo sapiens, NCI-H226; growth inhibition (GI%), single dose
UACC-257 = settings: Homo sapiens, UACC-257; growth inhibition (GI%), single dose
786-0 = settings: Homo sapiens, 786-0; growth inhibition (GI%), single dose
SF-268 = settings: Homo sapiens, SF-268; growth inhibition (GI%), single dose
OVCAR-5 = settings: Homo sapiens, OVCAR-5; growth inhibition (GI%), single dose
CCRF-CEM = settings: Homo sapiens, CCRF-CEM; growth inhibition (GI%), single dose
SF-295 = settings: Homo sapiens, SF-295; growth inhibition (GI%), single dose
BT-549 = settings: Homo sapiens, BT-549; growth inhibition (GI%), single dose
HCT-116 = settings: Homo sapiens, HCT-116; growth inhibition (GI%), single dose
SN12C = settings: Homo sapiens, SN12C; growth inhibition (GI%), single dose
SNB-75 = settings: Homo sapiens, SNB-75; growth inhibition (GI%), single dose
SF-539 = settings: Homo sapiens, SF-539; growth inhibition (GI%), single dose
UACC-62 = settings: Homo sapiens, UACC-62; growth inhibition (GI%), single dose
HOP-62 = settings: Homo sapiens, HOP-62; growth inhibition (GI%), single dose
HCT-15 = settings: Homo sapiens, HCT-15; growth inhibition (GI%), single dose
SK-OV-3 = settings: Homo sapiens, SK-OV-3; growth inhibition (GI%), single dose
NCI-H322M = settings: Homo sapiens, NCI-H322M; growth inhibition (GI%), single dose
A549/ATCC = settings: Homo sapiens, A549; growth inhibition (GI%), single dose
M14 = settings: Homo sapiens, M14; growth inhibition (GI%), single dose

Compound: N#Cc1nnn(-c2ccc(S(N)(=O)=O)cc2)c1NC(=O)CCl [compound 5, 5]
- inhibition at 10 µM (MDA-MB-468): 1.3%
- inhibition at 10 µM (SNB-19): 3.8%
- inhibition at 10 µM (KM12): 5.2%
- inhibition at 10 µM (SR): 4.1%
- inhibition at 10 µM (HOP-92): 3.9%
- inhibition at 10 µM (HS 578T): 99.8%
- inhibition at 10 µM (UO-31): 13.5%
- inhibition at 10 µM (U251): 7.7%
- inhibition at 10 µM (TK-10): 3.6%
- inhibition at 10 µM (RPMI-8226): 8.7%
- inhibition at 10 µM (NCI-H522): 5.1%
- inhibition at 10 µM (NCI-H226): 4.6%
- inhibition at 10 µM (UACC-257): 11.1%
- inhibition at 10 µM (786-0): 2.1%
- inhibition at 10 µM (SF-268): 2.5%
- inhibition at 10 µM (OVCAR-5): 3.4%
- inhibition at 10 µM (CCRF-CEM): 11.3%
- inhibition at 10 µM (SF-295): 1.8%
- inhibition at 10 µM (BT-549): 3.1%
- inhibition at 10 µM (HCT-116): 5.4%
- inhibition at 10 µM (SN12C): 11.8%
- inhibition at 10 µM (SNB-75): 14.5%
- inhibition at 10 µM (SF-539): 1.3%
- inhibition at 10 µM (UACC-62): 3.4%
- inhibition at 10 µM (HOP-62): 7.9%
- inhibition at 10 µM (HCT-15): 4.1%
- inhibition at 10 µM (SK-OV-3): 3.5%
- inhibition at 10 µM (NCI-H322M): 6.6%
- inhibition at 10 µM (A549/ATCC): 7.2%
- inhibition at 10 µM (M14): 4.7%
